Results taken from US6767907B2, “4-aryl-1-(indanmethyl dihydrobenzofuranmethyl or dihydrobenzothiophenemethyl) piperidines tetrahydropyridines or piperazines” (H. Lundbeck A/S, priority 1994, dated 2004).
Structures can show the parent of a compound that is named as a salt. Where two headings read alike, the source gives them in different places.

Assays:
[1] = target: T1, 5-HT1A receptors (Rattus norvegicus, UniProt P19327); test: Inhibition of 3H-8-OH-DPAT binding to serotonin 5-HT1A receptors in rat brain in vitro
T1 construct: 5-HT1A receptors in membranes from rat brain minus cerebellum; from tissue; host or cells: rat brain minus cerebellum, membranes
T1 sequence (P19327 1-422): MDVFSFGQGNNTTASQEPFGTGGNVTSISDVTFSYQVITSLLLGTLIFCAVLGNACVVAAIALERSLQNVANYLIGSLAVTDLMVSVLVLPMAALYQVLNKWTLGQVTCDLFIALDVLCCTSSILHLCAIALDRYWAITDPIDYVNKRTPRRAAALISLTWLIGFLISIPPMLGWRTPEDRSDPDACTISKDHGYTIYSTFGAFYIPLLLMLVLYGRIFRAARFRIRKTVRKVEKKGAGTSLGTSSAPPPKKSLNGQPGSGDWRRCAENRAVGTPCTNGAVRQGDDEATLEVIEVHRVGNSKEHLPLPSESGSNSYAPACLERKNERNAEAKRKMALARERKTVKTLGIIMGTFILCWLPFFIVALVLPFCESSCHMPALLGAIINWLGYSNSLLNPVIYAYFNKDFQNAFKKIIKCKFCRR
Method: By this method the inhibition by drugs of the binding of the 5-HT1A agonist ^3H-8-OH-DPAT (1 nM) to 5-HT1A receptors in membranes from rat brain minus cerebellum is determined in vitro . Accordingly, this is a test for affinity for the 5-HT1A receptor. The test is performed as described by Hyttel et al., Drug. Dev. Res., 1988, 15, 389-404.

[2] = target: T2, 5-HT2A receptors (Rattus norvegicus, UniProt P14842); test: Inhibition of 3H-Ketanserin binding to 5-HT2 receptors in rat cortex in vitro; details: 3H-Ketanserin 0.5 nM; membranes from rat cortex; read-out: 3H Ketanserin (5-HT2A) binding, IC50
T2 construct: 5-HT2A receptors in membranes from rat is determined in vitro; from tissue; host or cells: rat cortex membranes
T2 sequence (P14842 whole entry): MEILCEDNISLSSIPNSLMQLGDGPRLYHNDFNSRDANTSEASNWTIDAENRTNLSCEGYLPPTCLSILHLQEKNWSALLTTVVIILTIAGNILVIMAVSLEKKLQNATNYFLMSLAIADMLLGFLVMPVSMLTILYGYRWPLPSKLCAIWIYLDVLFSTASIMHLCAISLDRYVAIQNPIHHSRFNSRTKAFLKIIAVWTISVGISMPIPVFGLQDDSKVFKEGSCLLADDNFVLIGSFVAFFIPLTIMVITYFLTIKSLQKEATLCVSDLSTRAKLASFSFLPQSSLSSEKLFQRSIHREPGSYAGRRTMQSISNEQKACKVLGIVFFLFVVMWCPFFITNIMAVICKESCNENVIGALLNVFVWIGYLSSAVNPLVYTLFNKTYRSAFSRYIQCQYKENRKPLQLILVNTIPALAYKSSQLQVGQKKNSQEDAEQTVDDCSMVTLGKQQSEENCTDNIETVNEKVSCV
Method: Inhibition of ^3H-Ketanserin Binding to 5-HT2 Receptors in Rat Cortex in vitro.
By this method the inhibition by drugs of the binding of ^3H-Ketanserin (0.5 nM) to 5-HT2A receptors in membranes from rat is determined in vitro .

[3] = 3H-8-OH-DPAT 1 nM, membranes from rat brain minus cerebellum, read-out: 3H 8-OH DPAT (5-HT1A) binding, IC50

melting point [°C]	Compound	other results
98 to 109	Nc1ccc2c(c1)C(CN1CCN(c3ccc(Cl)cc3)CC1)CC2 (stereo not drawn) [Compound 2e, 1-(6-Aminoindan-1-ylmethyl)-4-(4-chlorophenyl)piperazine]	
	CC(=O)Nc1ccc2c(c1)C(CN1CCC(c3c[nH]c4ccc(Cl)cc34)CC1)CS2 (stereo not drawn) [Compound 11a, 3-[1-(5-Acetylamino-2,3-dihydrobenzothiophen-3-ylmethyl)piperidin-4-yl]-5-chloro-1H-indole]	IC50 [1, 3]: 28 nM; IC50 [2]: 42 nM
	CC(=O)Nc1ccc2c(c1)C(CN1CC=C(c3c[nH]c4ccc(Cl)cc34)CC1)CS2 (stereo not drawn) [Compound 11b, 3-[1-(5-Acetylamino-2,3-dihydrobenzothiophen-3-ylmethyl)-1,2,3,6-tetrahydropyridin-4-yl]-5-chloro-1H-indole]	IC50 [1, 3]: 21 nM; IC50 [2]: 44 nM
	CC(=O)Nc1ccc2c(c1)C(CN1CC=C(c3c[nH]c4ccc(F)cc34)CC1)CS2 (stereo not drawn) [Compound 11d, 3-[1-(5-Acetylamino-2,3-dihydrobenzothiophen-3-ylmethyl)-1,2,3,6-tetrahydropyridin-4-yl]-5-fluoro-1H-indole]	IC50 [1, 3]: 29 nM; IC50 [2]: 15 nM
	CN(C)C(=O)Nc1ccc2c(c1)C(CN1CCC(c3ccc(F)cc3)CC1)CC2 (stereo not drawn) [Compound 6a, 1-(6-Dimethylaminocarbonylaminoindan-1-ylmethyl)-4-(4-fluorophenyl)piperidine]	IC50 [1, 3]: 1200 nM; IC50 [2]: 9.1 nM
	CCOC(=O)Nc1ccc2c(c1)C(CN1CCC(c3ccc(F)cc3)CC1)CC2 (stereo not drawn) [Compound 4l, 1-(6-Ethyloxycarbonylaminoindan-1-ylmethyl)-4-(4-fluorophenyl)piperidine]	inhibition at 0.1 µM ([1]; read-out: 3H 8-OH DPAT (5-HT1A) binding, % inhibition of binding at 100 nM, at 100 nM, 3H-8-OH-DPAT 1 nM, rat brain membranes): 26%; IC50 [2]: 55 nM
	CC(=O)Nc1ccc2c(c1)C(CN1CC=C(c3c[nH]c4cc(Cl)ccc34)CC1)CC2 (stereo not drawn) [Compound 11e, 3-[1-(6-Acetylaminoindan-1-ylmethyl)-1,2,3,6-tetrahydropyridin-4-yl]-6-chloro-1H-indole]	IC50 [1]: 27 nM; IC50 [2]: 130 nM
198 to 201	Nc1ccc2c(c1)C(CN1CCC(c3ccc(F)cc3)CC1)CC2 (stereo not drawn) (as salt: hydrochloride) [Compound 2a]	
163 to 165	CC(=O)Nc1ccc2c(c1)C(CN1CCC(O)(c3ccc(Cl)c(C(F)(F)F)c3)CC1)CC2 (stereo not drawn) (as salt: oxalate)	
	NC(=O)Nc1ccc2c(c1)C(CN1CCC(c3ccc(F)cc3)CC1)CC2 (stereo not drawn) [Compound 7a, 1-(6-Aminocarbonylaminoindan-1-ylmethyl)-4-(4-fluorophenyl)piperidine]	IC50 [1, 3]: 13 nM; IC50 [2]: 2.6 nM
	CC(=O)Nc1ccc2c(c1)C(CN1CCC(c3ccc(F)cc3)CC1)CC2 (single isomer, unassigned; (+)) [Compound 14a, (+)-1-(6-Acetylaminoindan-1-ylmethyl)-4-(4-fluorophenyl)piperidine]	IC50 [1, 3]: 120 nM; IC50 [2]: 16 nM
195 to 203	CC(=O)Nc1ccc2c(c1)C(CN1CCN(c3ccccc3Cl)CC1)CC2 (stereo not drawn) (as salt: hydrochloride) [Compound 4f, 1-(6-Acetylaminoindan-1-ylmethyl)-4-(2-chlorophenyl)piperazine]	
191 to 193	CCOC(=O)Nc1ccc2c(c1)C(CN1CCC(c3ccc(F)cc3)CC1)CC2 (stereo not drawn) (as salt: fumarate) [Compound 4l, 1-(6-Ethyloxycarbonylaminoindan-1-ylmethyl)-4-(4-fluorophenyl)piperidine]	
132 to 133	CNC(=O)Nc1ccc2c(c1)C(CN1CCN(c3ccc4c(c3)OCO4)CC1)CC2 (stereo not drawn) (as salt: oxalate) [Compound 5d, 1-(6-Methylaminocarbonylaminoindan-1-ylmethyl)-4-(3,4-methylendioxyphenyl)piperazine]	
189 to 191	CC(=O)Nc1ccc2c(c1)C(CN1CCC(n3ccc4cc(Cl)ccc43)CC1)CC2 (stereo not drawn)	
78 to 84	Nc1ccc2c(c1)C(CN1CC=C(c3ccc(F)cc3)CC1)CC2 (stereo not drawn)	
223 to 226	CC(=O)Nc1ccc2c(c1)C(CN1CC=C(c3ccc(Cl)cc3)CC1)CC2 (stereo not drawn) (as salt: oxalate)	
188 to 189	CC(=O)Nc1ccc2c(c1)C(CN1CCN(c3ccc4c(c3)OCO4)CC1)CC2 (stereo not drawn) [Compound 4q, 1-(6-Acetylaminoindan-1-ylmethyl)-4-(3,4-methylenedioxyphenyl)piperazine]	
181 to 183	CNC(=S)Nc1ccc2c(c1)C(CN1CCC(c3ccc(F)cc3)CC1)CC2 (stereo not drawn) (as salt: fumarate) [Compound 5c, 4-(4-Fluorophenyl)-1-(6-methylaminothiocarbonylaminoindan-1-ylmethyl)piperidine]	

Compound	melting point [°C]	other results
CC(=O)Nc1ccc2c(c1)C(CN1CC=C(c3c[nH]c4ccc(Cl)cc34)CC1)CC2 (stereo not drawn) (as salt: oxalate) [Compound 11g, 3-[1-(6-Acetylaminoindan-1-ylmethyl)-1,2,3,6-tetrahydropyridin-4-yl]-5-chloro-1H-indole]	220 to 223	
CC(=O)Nc1ccc2c(c1)C(CN1CCC(c3c[nH]c4ccc(F)cc34)CC1)CC2 (stereo not drawn) (as salt: oxalate) [Compound 11c, 3-[1-(6-Acetylaminoindan-1-ylmethyl)piperidin-4-yl]-5-fluoro-1H-indole]	145 to 149	
CC(=O)Nc1ccc2c(c1)C(CN1CC=C(c3c[nH]c4ccc(Cl)cc34)CC1)CS2 (stereo not drawn) (as salt: oxalate) [Compound 11b, 3-[1-(5-Acetylamino-2,3-dihydrobenzothiophen-3-ylmethyl)-1,2,3,6-tetrahydropyridin-4-yl]-5-chloro-1H-indole]	214 to 216	
CC(=O)Nc1ccc2c(c1)C(CN1CC=C(c3c[nH]c4cc(Cl)ccc34)CC1)CC2 (stereo not drawn) (as salt: oxalate) (hydrate or solvate) [Compound 11e, 3-[1-(6-Acetylaminoindan-1-ylmethyl)-1,2,3,6-tetrahydropyridin-4-yl]-6-chloro-1H-indole]	151 to 164	
CS(=O)(=O)Nc1ccc2c(c1)C(CN1CC=C(c3ccc(Cl)cc3)CC1)CC2 (stereo not drawn) (as salt: oxalate) [Compound 4m, 4-(4-Chlorophenyl)-1-(6-methansulphonylaminoindan-1-ylmethyl)-1,2,3,6-tetrahydropyperidine]	176 to 178	
COc1ccccc1N1CCN(CC2CCc3ccc(NC(C)=O)cc32)CC1 (stereo not drawn) (as salt: oxalate) [Compound 4g, 1-(6-Acetylaminoindan-1-ylmethyl)-4-(2-methoxyphenyl)piperazine]	210 to 213	
CC(=O)Nc1ccc2c(c1)C(CN1CCC(c3c[nH]c4cc(Cl)ccc34)CC1)CC2 (stereo not drawn) (as salt: oxalate) [Compound 11f, 3-[1-(6-Acetylaminoindan-1-ylmethyl)piperidin-4-yl]-6-chloro-1H-indole]	122 to 130	
CC(=O)Nc1ccc2c(c1)C(CN1CC=C(c3c[nH]c4ccc(F)cc34)CC1)CS2 (stereo not drawn) (as salt: oxalate) [Compound 11d, 3-[1-(5-Acetylamino-2,3-dihydrobenzothiophen-3-ylmethyl)-1,2,3,6-tetrahydropyridin-4-yl]-5-fluoro-1H-indole]	155 to 165	
CC(=O)Nc1ccc2c(c1)C(CN1CCC(c3cn(C)c4cc(Cl)ccc34)CC1)CC2 (stereo not drawn) (as salt: oxalate) [Compound 15b, 3-[1-(6-Acetylaminoindan-1-ylmethyl)piperidin-4-yl]-6-chloro-1-m ethyl-1H-indole]	202 to 205	
